From US20170042991A1, “COMPOSITIONS COMPRISING GLUTEN PEPTIDES AND USES THEREOF” (ImmusanT, Inc., priority 2014, published 2017)
Non-standard residues stand in square brackets, D forms with d. pGlu = O=C1CC[C@@H](C(=O)O)N1

Experiments:
Assay type in all cases: cell-based, human
PBMC [1] = assay: IFN-gamma ELISpot of PBMC, Day-6 after gluten challenge (Example 1); details: DQ2.5+ CD
whole blood [2] = assay: 96-well plate whole blood multiplex cytokine release, IFNγ (MAGPIX bead assay, Example 2); details: Day-6, n = 8
PBMC [3] = assay: Overnight IFNγ ELISpot assay with fresh PBMC (Example 2); details: Day-6, n = 5
Method: Ten HLA-DQ2.5+ adults with celiac disease diagnosed according to the National Institutes of Health Consensus Statement 2004 were enrolled (Table 7).^22 Subjects were required to have followed gluten-free diet for at least one year and without known gluten exposures within the previous two-months. […] Full inclusion and exclusion criteria are described in Table 8. Each of 3 consecutive days subjects consumed 3 cookies that were prepared from approximately 4.5 g wheat gluten, 3 g barley flour protein, and 1.5 g rye flour protein. Blood was collected before and six days after commencing the oral challenge. Blood was collected using a 21G butterfly needle directly into 10 mL lithium heparin tubes (BD Vacutainer® Heparin tube #367880) and QuantiFERON® NIL (0591-0205, Cellestis Ltd., Chadstone VIC 3148 Australia) and QuantiFERON® MITOGEN (0593-0201, Cellestis Ltd.).
Overnight IFNγ ELISpot assays (Human IFN-γ ELISpotPRO kit, transparent, ALP; Mabtech AB, #3420-2APT-10) were performed using PBMC freshly separated from heparinized blood diluted 1:1 in PBS with 2% fetal bovine serum (Stemcell Technologies #07905; Vancouver, BC, V5Z 1B3, Canada) overlaid on density gradient medium (Ficoll-Paque™ PLUS; GE Healthcare Lice Sciences #:17-1440-02) in SepMate™-50 tubes (Stemcell Technologies #15460). PBMC (8 million/mL) were resuspended in serum-free medium with gentamicin and phenol red (X-VIVO™15; Lonza, Walkersville Mass. 21793). PBMC (0.4 million/50 μL/well) and incubated with 50 μL 80% X-vivol5, 0.2% DMSO and 20% PBS in three triplicate wells (“medium only”), or with 50 μL PHA-L 20 μg/ml or peptide at 2× final concentration in 80% X-vivol5, 0.2% DMSO and 20% PBS. Peptide solutions to be added to individual ELISpot wells were prepared in 96-well U-bottom plates (60 μL/well) that were then sealed with adhesive ELISA plate cover slips before replacing the plastic lid and being frozen at −80° C. 96-well plates containing peptide solutions were thawed at room temperature for 10 min while being centrifuged at 300 g immediately prior to being added to ELISpot wells. Peptide pools and mitogen were assessed in triplicate wells, and individual peptides were assessed in duplicate wells. X-VIVO™15 (50 μL) was incubated with 80% X-vivol5, 0.2% DMSO and 20% PBS (50 μL) in triplicate wells (“no PBMC” control). A Zeiss automated ELISpot counter was used to determine spot forming units (SFU) per well (Zellnet Inc., Fort Lee, N.J. 07024). Laboratory staff were unaware of the arrangement of peptide solutions in ELISpot wells during assay setup and plate counting.

gluten-reactive T cells = assay: Cytokine release assays taken together (IFNγ ELISpot, whole blood IFNγ and IP-10 release); details: three cytokine release assays
Method: Gluten peptide solutions for addition to whole blood were arranged according to standardized templates in sterile 96-well U-bottom plates (30 μL/well). Plates were sealed with adhesive ELISA plate cover slips before the plastic lid was replaced and being frozen at −80° C. Whole blood assay (WBA) “medium” (1% DMSO in 90% PBS and 9% normal saline), mitogen (PHA-L, Sigma-Aldrich #L2769; St Louis Mo.) 100 μg/ml in WBA medium, and CEF diluted to 10 μg/ml in PBS with a final concentration of 1% DMSO were frozen separately in sterile cryovials. 96-well plates and cryovials with frozen incubation solutions were shipped on dry ice to the clinical site where blood was collected and incubations performed. Solutions were thawed at room temperature for 10 min just before being added to whole blood. 96-well plates were thawed while being centrifuged at 300 g to avoid surface condensation. A multi-channel pipette was used to efficiently transfer 25 μL of peptide solutions from the original 96-well plate to corresponding wells in a fresh sterile 96-well U-bottom plate. Once incubation solutions had been added, 225 μL of whole blood was added to each well and the plate transferred to incubate for 24 h at 37° C. 5% CO2. […] Individual peptides were incubated at a final assay concentration of 5 μM. Final concentrations of individual peptides assessed in P3 was 0.05-50 μg/mL, and in P14 and P13 pools 0.025-25 μM. The P71 pool was tested at between 0.005-10 μg/mL, the highest tested concentration being the maximal possible not exceeding 0.1% DMSO. Peptide pools, mitogen, and medium only were assessed in triplicate wells, and on Day-6 individual peptides were assessed in duplicate wells. Incubations were terminated after 24 h, and 96-well plates centrifuged at 300 g for 10 min. A total of approximately 90 to 120 μL of plasma was removed from each well taking care to avoid red cell contamination, and transferred into corresponding wells of two further 96-well plates (one with 30 μL/well and the residual in the second plate). Plasmas were frozen at −80° C. and later shipped on dry ice to the central lab where IP-10 and IFNγ multiplex bead assays were performed according to manufacturer's instructions using 25 μL plasma per well (Milliplex® MAP Human Cytokine/Chemokine Magnetic Bead Panel #HCYTOMAG-60k-02; EMD Millipore Corp., Billerica, Mass. 01821) and analysed with the Luminex® MAGPIX® System xPONENT® software (Luminex Corporation, Austin Tex. 78727). Plasma cytokine levels for each assay condition were expressed as the mean analyte concentration of each of the three replicate incubations. Laboratory staff were unaware of the arrangement of peptide solutions incubated with during assay setup and plate counting. […]

whole blood [4] = assay: 96-well plate whole blood multiplex cytokine release, IP-10 (MAGPIX bead assay, Example 2); details: for IP-10 WB MAGPIX % max Mean: Day-6, n = 10; for Percent of maximal response, IP-10: after oral gluten challenge
[5] = Peptide 2 re-synthesised by Pepscan, 10 μg/mL (5.45 μM)
[6] = individual peptides 5 μM, Peptide 2 = CSBio batch

(pE)QPFPQPEQPFPWQP-amide ([pGlu]QPFPQPEQPFPWQP-NH2; SMILES NC(=O)CC[C@H](NC(=O)[C@H](Cc1c[nH]c2ccccc12)NC(=O)[C@@H]1CCCN1C(=O)[C@H](Cc1ccccc1)NC(=O)[C@@H]1CCCN1C(=O)[C@H](CCC(N)=O)NC(=O)[C@H](CCC(=O)O)NC(=O)[C@@H]1CCCN1C(=O)[C@H](CCC(N)=O)NC(=O)[C@@H]1CCCN1C(=O)[C@H](Cc1ccccc1)NC(=O)[C@@H]1CCCN1C(=O)[C@H](CCC(N)=O)NC(=O)[C@@H]1CCC(=O)N1)C(=O)N1CCC[C@H]1C(N)=O) [Peptide 2, CSBio and Pepscan batches tested separately]
Peptide-specific IFN-gamma ELISpot response (PBMC [1]; Subject 1, 10 ug/ml): 0 spot forming units per 0.8 million PBMC
Peptide-specific IFN-gamma ELISpot response (PBMC [1]; Subject 2, 10 ug/ml): 1 spot forming units per 0.8 million PBMC
Peptide-specific IFN-gamma ELISpot response (PBMC [1]; Subject 3, 10 ug/ml): 2 spot forming units per 0.8 million PBMC
Peptide-specific IFN-gamma ELISpot response (PBMC [1]; Subject 4, 10 ug/ml): 17 spot forming units per 0.8 million PBMC
Peptide-specific IFN-gamma ELISpot response (PBMC [1]; Subject 5, 10 ug/ml): 0 spot forming units per 0.8 million PBMC
Peptide-specific IFN-gamma ELISpot response (PBMC [1]; Subject 6, 10 ug/ml): 2 spot forming units per 0.8 million PBMC
Peptide-specific IFN-gamma ELISpot response (PBMC [1]; Subject 7, 10 ug/ml): 2 spot forming units per 0.8 million PBMC
Peptide-specific IFN-gamma ELISpot response (PBMC [1]; Subject 8, 10 ug/ml): 4 spot forming units per 0.8 million PBMC
Peptide-specific IFN-gamma ELISpot response (PBMC [1]; Subject 9, 10 ug/ml): 1 spot forming units per 0.8 million PBMC
Peptide-specific IFN-gamma ELISpot response (PBMC [1]; Subject 10, 10 ug/ml): 0 spot forming units per 0.8 million PBMC
IFNγ WB MAGPIX % max Mean (whole blood [2]; [5]): 27 % max
IFNγ WB MAGPIX % max Mean (whole blood [2]; [6]): 23 % max
IFNγ ELISpot % max Mean (PBMC [3]; [5]): 25 % max
IFNγ ELISpot % max Mean (PBMC [3]; [6]): 19 % max
activity as a fraction of that of Peptide 14 (gluten-reactive T cells): one-half to one-fifth
IP-10 WB MAGPIX % max Mean (whole blood [4]; [5]): 49 % max
Percent of maximal response, IP-10 (whole blood [4]; Subject 3, Max. 9492 pg/mL): ≥ 100 % of max
Percent of maximal response, IP-10 (whole blood [4]; Subject 4, Max. 9463 pg/mL): ≥ 100 % of max
IP-10 WB MAGPIX % max Mean (whole blood [4]; [6]): 43 % max
